Measured values taken from patent US20250057097A1, “PHOSPHODIESTERASES INHIBITORS TO PROMOTE IN VITRO PLANT CELL REPROGRAMMING TOWARDS PLANT EMBRYOGENESIS OR MICROCALLUS FORMATION” (CONSEJO SUPERIOR DE INVESTIGACIONES CIENTÍFICAS (CSIC), priority 2021, published 2025).

Experiments:
[1] = tested on: Brassica napus microspore cotyledonary embryos; test: Germination capacity of embryos produced in treated microspore cultures; type: cell-based; conditions: cotyledonary embryos from 30-40 days cultures, desiccated and cultured under germination conditions
Protocol: To evaluate the quality of embryos produced in microspore embryogenesis cultures in the presence of the inhibitors, embryo germination assays were performed. Brassica napus microspore cotyledonary embryos originated from control and treated-cultures were used for in vitro embryo germination and conversion to plantlets as previously described (Prem et al., 2012 BMC Plant Biology 12, 127). The 34-40 old dicotyledonous embryos, after air desiccation on sterile filter paper were germinated in MS (Murashige and Skoog) medium containing sucrose 2% (w/v) and gelled with 7 g/L bacteriological agar (w/v). Microspore derived-embryos were incubated for 15-20 days at 18° C. in darkness conditions till activation of radicle and plumule, and quantified in terms of percentage of embryos showing normal growth, similar to zygotic embryo germination.

[2] = tested on: Arabidopsis mesophyll protoplasts; test: Microcallus formation (proliferation efficiency) in immobilized mesophyll protoplasts; type: cell-based, Arabidopsis thaliana; conditions: 48 h pulse treatment
Protocol: Seeds of an Arabidopsis thaliana line overexpressing histone 2B fused with yellow fluorescent protein (H2B-YFP) were surface-sterilized and sown on MS agar. After 24 h stratification, plates were cultured vertically for 7 days under long day conditions (16 h light-8 h dark) at 22° C. Prior to seedling harvest, plates were kept vertically in the dark at 4° C. for 24 h. Protoplasts were isolated from hypocotyl and cotyledons including primary leaves according to Dovzhenko et al., Protoplasma, 222(1-2):107-11 (2003).
Protoplast density was determined by cell counting in a Fuchs-Rosenthal chamber. For immobilization, protoplasts were mixed with equal volumes of 1.2% (w/v) low melting agarose in protoplast buffer, prewarmed at 40° C. and immediately pipetted into a 96-well plate (Ibidi, Germany), prewarmed at 34° C. with 125 μL per well. The plate was immediately centrifuged (2 min, 30 g) and incubated at 4° C. for 5 min, 200 μL of cultivation medium was added on top of each well and the protoplasts were cultivated at 22° C. in the dark. Cultivation medium was composed of macro and micro elements based on Kao K N and Michayluk M R. Planta., 126(2):105-10 (1975), supplemented with 2 μM of 2,4-D and 1 μM of thidiazurone. For PDE inhibitors treatments, PDE inhibitors were dissolved in DMSO and added to the medium with the concentration given (liquid media). […]
An automated microscope (MORE1, Till I.D. GmbH, Munich, Germany) was used for the analysis of protoplast development and for the detection of YFP fluorescence. Transillumination was recorded with 10×0.45 and 20×0.8 objectives (Zeiss); epifluorescence was recorded after excitation with single-mode diode lasers (iBeam smart, Toptica) with excitation of 550 nm (YFP)/green emission filter. […]
Images were recorded immediately after immobilization and 10 days after immobilization (DAIs). […] Quantification of proliferating cells was performed by exploiting shape differences of dividing or closely adjacent nuclei after the application of EDM binary operations on epifluorescence images in comparison with circular fluorescence signals from non-dividing mononucleic cells (Brocher Int. J. Image Process, 8, 30-48 (2014)). Corresponding cellular shape parameters from proliferating microcalli were determined from selecting segmented transillumination images after filtering with processed epiflourescence images using the BioVoxxel binary feature extraction function.
PDE inhibitors were tested for their capability to increase the proliferation rate of Arabidopsis protoplasts isolated from leaves. […] Microscopic images were recorded 10 days after immobilization and proliferating microcalli were identified by the presence of multiple fluorescing nuclei visualized by exploiting the nuclear-encoded H2B-YFP marker (see FIG. 3). […]

Row | SMILES | germination capacity / quality of embryos [1] | microcalli formation rate increased by, relative to the untreated control ([2]; 10 μM) [%] | increased rate of microcalli formation relative to the untreated control ([2]; 1 μM) [%] | induction of microcallus formation compared with the untreated control ([2]; 10 μM) [%]
1 | O=C(Nc1c(Cl)cncc1Cl)c1ccc(OC(F)F)c(OCC2CC2)c1 [FDA4.21, 3-(cyclopropylmethoxy)-N-(3,5-dichloropyridin-4-yl)-4-(difluoromethoxy) benzamide, reference compound] | well-developed roots and hypocotyls in most embryos | – | – | –
2 | Cc1oc(-c2ccccc2F)nc1CN1CCC[C@@H](C(=O)NCc2cccc(Cl)c2)C1 [JHD1.48, (R)—N-(3-chlorobenzyl)-1-((2-(2-fluorophenyl)-5-methyloxazol-4-yl)methyl) piperidin-3-carboxamide] | well-developed roots and hypocotyls in most embryos | 50 | – | –
3 | COc1ccc(C2CNC(=O)C2)cc1OC1CCCC1 (stereo not drawn) [FDA4.22, 4-(3-cyclopentyloxy-4-methoxyphenyl)pyrrolidin-2-one, reference compound] | well-developed roots and hypocotyls in most embryos | – | – | –
4 | CSc1nc2ccccc2c(=O)n1-c1c(F)cccc1F [TC2.43, 3-(2,6-Difluorophenyl)-2-methylthio-4-oxo-3,4-dihydroquinazoline] | well-developed roots and hypocotyls in most embryos | 200 | 140 | –
5 | COc1ccc(-c2nc(-c3ccccc3Br)[nH]c2-c2ccc(OC)cc2)cc1 [AGF4.17, 2-(2-Bromophenyl)-4,5-bis(4-methoxyphenyl)-1H-imidazole] | well-developed roots and hypocotyls in most embryos | – | – | 250
